This assay deals with BDF1 mice, Adenocarcinoma 755 s.c., tumor weight T/C. The assay can be described thus: NCI In Vivo Anticancer Drug Screen. Data for tumor model Adenocarcinoma 755 (subcutaneous) in B6D2F1 (BDF1) mice. The note with it: endpoint: mean tumor weight, higher = larger tumour. An outline of the steps:
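Tumor-bearing mice receive test compound while controls get vehicle alone. Antitumor effect is scored from survival or tumor dimensions as a T/C quotient.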

Setting [1] is: dose: 3.7 mg/kg/injection, schedule: Q01DX011 (ip), vehicle: carboxymethylcellulose (CMC).
[2] abbreviates: dose: 30.0 mg/kg/injection, schedule: Q01DX011 (ip), vehicle: methylcellulose (MC).
Where [3] appears, read: dose: 30.0 mg/kg/injection, schedule: Q01DX011 (ip), vehicle: carboxymethylcellulose (CMC).
The mark [4] stands for this setting: dose: 62.0 mg/kg/injection, schedule: Q01DX011 (ip), vehicle: methylcellulose (MC).
The mark [5] stands for this setting: dose: 125.0 mg/kg/injection, schedule: Q01DX011 (ip), vehicle: methylcellulose (MC).
The mark [6] stands for this setting: dose: 250.0 mg/kg/injection, schedule: Q01DX011 (ip), vehicle: methylcellulose (MC).

Several values for one entry are separate records, joined by “and”; a condition that tells them apart may be missing. Equal values may be shown once.

As usually defined, the T/C is the result in the treated group divided by that in the control group, in per cent. Regarding `C[C@]12CCC(=O)C=C1CC[C@@H]1[C@@H]2[C@@H](O)C[C@]2(C)C(=O)CC[C@@H]12`, the T/C reads like this: (dose: 100.0 mg/kg/injection, schedule: Q01DX011 (sc), vehicle: steriod suspending solution) 107 % of control; (dose: 200.0 mg/kg/injection, schedule: Q01DX011 (sc), vehicle: steriod suspending solution) 83 % of control.
On to `CCCCn1cnc2c(=S)nc(N)[nH]c21`, for which the T/C (dose: 0.6 mg/kg/injection, schedule: Q01DX011 (ip), vehicle: carboxymethylcellulose (CMC)) is 57 % of control; the T/C (dose: 1.2 mg/kg/injection, schedule: Q01DX011 (ip), vehicle: carboxymethylcellulose (CMC)) was 35 % of control; the T/C (dose: 1.2 mg/kg/injection, schedule: Q01DX011 (ip), vehicle: olive oil, sesame oil, peanut oil) was 60 % of control; the T/C (dose: 2.5 mg/kg/injection, schedule: Q01DX011 (ip), vehicle: carboxymethylcellulose (CMC)) is 2 % of control; the T/C (dose: 2.5 mg/kg/injection, schedule: Q01DX011 (ip), vehicle: olive oil, sesame oil, peanut oil) is 33 % of control.
In the case of `Cc1ccc(S(=O)(=O)OCCC(=O)N2CCN(C(=O)CCOS(=O)(=O)c3ccc(C)cc3)CC2)cc1`, the T/C is 57 % of control (dose: 22.0 mg/kg/injection, schedule: Q01DX011 (ip), vehicle: methylcellulose (MC)); 47 % of control (dose: 43.0 mg/kg/injection, schedule: Q01DX011 (ip), vehicle: methylcellulose (MC)); 80 % of control (dose: 87.0 mg/kg/injection, schedule: Q01DX011 (ip), vehicle: methylcellulose (MC)); 60 % of control (dose: 175.0 mg/kg/injection, schedule: Q01DX011 (ip), vehicle: methylcellulose (MC)).
With `C/C(=N\NC(=O)c1ccncc1)c1cccc(Br)c1`, the T/C (dose: 0.9 mg/kg/injection, schedule: Q01DX011 (ip), vehicle: carboxymethylcellulose (CMC)) was 116 % of control; the T/C under setting [1] was 154 % of control; the T/C (dose: 7.5 mg/kg/injection, schedule: Q01DX011 (ip), vehicle: methylcellulose (MC)) is 34 % of control and 57 % of control; the T/C (dose: 15.0 mg/kg/injection, schedule: Q01DX011 (ip), vehicle: methylcellulose (MC)) is 65 % of control and 87 % of control.
Take `Fc1ccccc1CSc1ncnc2c1ncn2C1CCCCO1` (configuration not stated): the T/C under setting [2] is 21 % of control.
For the compound `Nc1[nH]c(=O)[nH]c(=O)c1C(=O)CCl`, the T/C under setting [3] was 77 % of control.
As to `COc1cc(-c2ccc(N=Nc3c(O)ccc4ccccc34)c(OC)c2)ccc1N=Nc1ccc2c(S(=O)(=O)O)cc(S(=O)(=O)O)c(N)c2c1O`, the T/C reads like this: (dose: 62.0 mg/kg/injection, schedule: Q01DX011 (ip), vehicle: carboxymethylcellulose (CMC)) 63 % of control and 75 % of control; (dose: 112.0 mg/kg/injection, schedule: Q01DX011 (ip), vehicle: carboxymethylcellulose (CMC)) 60 % of control and 79 % of control; (dose: 225.0 mg/kg/injection, schedule: Q01DX011 (ip), vehicle: carboxymethylcellulose (CMC)) 39 % of control and 64 % of control; (dose: 450.0 mg/kg/injection, schedule: Q01DX011 (ip), vehicle: carboxymethylcellulose (CMC)) 29 % of control.
Consider `Cc1cnc(SCc2ccc(Cl)cc2Cl)[nH]c1=O`, for which the T/C is 110 % of control (dose: 31.0 mg/kg/injection, schedule: Q01DX011 (ip), vehicle: methylcellulose (MC)); 113 % of control under setting [4]; 82 % of control under setting [5]; 99 % of control under setting [6].
With `CC1CCC(n2cnc3c(=S)nc[nH]c32)O1` (configuration not stated), the T/C by setting is: (dose: 1.8 mg/kg/injection, schedule: Q01DX011 (ip), vehicle: carboxymethylcellulose (CMC)) 86 % of control; under setting [1], 12 % of control; (dose: 7.5 mg/kg/injection, schedule: Q01DX011 (ip), vehicle: carboxymethylcellulose (CMC)) 3 % of control; (dose: 15.0 mg/kg/injection, schedule: Q01DX011 (ip), vehicle: carboxymethylcellulose (CMC)) 3 % of control.
Consider `Cc1ccc(N=S=O)cc1`, for which, for the setting “dose: 125.0 mg/kg/injection, schedule: Q01DX011 (ip), vehicle: saline”, the T/C is 68 % of control.
Turning to `O=C(CCBr)N1CCC(CCC2CCN(C(=O)CCBr)CC2)CC1`, the T/C was 94 % of control (dose: 25.0 mg/kg/injection, schedule: Q01DX011 (ip), vehicle: methylcellulose (MC)); 68 % of control (dose: 75.0 mg/kg/injection, schedule: Q01DX011 (ip), vehicle: methylcellulose (MC)); 43 % of control (dose: 225.0 mg/kg/injection, schedule: Q01DX011 (ip), vehicle: methylcellulose (MC)).
As to `CC[C@]1(O)C[C@H]2CN(CCc3c([nH]c4ccccc34)[C@@](C(=O)OC)(c3cc4c(cc3OC)N(C=O)[C@H]3[C@@](O)(C(=O)OC)[C@H](OC(C)=O)[C@]5(CC)C=CCN6CC[C@]43[C@@H]65)C2)C1`, the T/C was 95 % of control (dose: 0.06 mg/kg/injection, schedule: Q01DX011 (ip), vehicle: saline); 173 % of control (dose: 0.12 mg/kg/injection, schedule: Q01DX011 (ip), vehicle: saline); 54 % of control (dose: 0.25 mg/kg/injection, schedule: Q01DX011 (ip), vehicle: saline).
With `O=C(Nc1ccc(C2=NCCS2)cc1)c1ccc(C(=O)Nc2ccc(C3=NCCS3)cc2)cc1`, the T/C reads like this: under setting [2], 118 % of control; (dose: 120.0 mg/kg/injection, schedule: Q01DX011 (ip), vehicle: methylcellulose (MC)) 121 % of control.
Take `Fc1ccc(CSc2ncnc3c2ncn3C2CCCO2)cc1` (configuration not stated): the T/C is, setting by setting: (dose: 4.6 mg/kg/injection, schedule: Q01DX011 (ip), vehicle: methylcellulose (MC)) 53 % of control; (dose: 9.3 mg/kg/injection, schedule: Q01DX011 (ip), vehicle: methylcellulose (MC)) 45 % of control; (dose: 18.7 mg/kg/injection, schedule: Q01DX011 (ip), vehicle: methylcellulose (MC)) 10 % of control; (dose: 37.5 mg/kg/injection, schedule: Q01DX011 (ip), vehicle: methylcellulose (MC)) 1 % of control and 3 % of control.
On to `S=c1nc[nH]c2c1ncn2C1CCCCCC1`, for which the T/C is, setting by setting: (dose: 125.0 mg/kg/injection, schedule: Q01DX011 (ip), vehicle: carboxymethylcellulose (CMC)) 65 % of control; (dose: 250.0 mg/kg/injection, schedule: Q01DX011 (ip), vehicle: carboxymethylcellulose (CMC)) 88 % of control; (dose: 500.0 mg/kg/injection, schedule: Q01DX011 (ip), vehicle: carboxymethylcellulose (CMC)) 87 % of control.
Regarding `CS(C)=O`, the T/C reads like this: (dose: 1000.0 mg/kg/injection, schedule: Q01DX011 (ip), vehicle: other) 71 % of control; (dose: 1000.0 mg/kg/injection, schedule: Q#A X022 (ip), vehicle: other) 25 % of control; (dose: 1500.0 mg/kg/injection, schedule: Q01DX011 (ip), vehicle: other) 115 % of control; (dose: 1500.0 mg/kg/injection, schedule: Q#A X022 (ip), vehicle: other) 67 % of control.
In the case of `CCCCNc1nc(N)nc2c1nnn2CCCC`, the T/C by setting is: under setting [4], 54 % of control; under setting [5], 78 % of control; under setting [6], 45 % of control.
As to `O=C(Nc1ccc(C2=NCCCN2)cc1)c1ccc(C(=O)Nc2ccc(C3=NCCCN3)cc2)cc1`, the T/C reads like this: (dose: 0.4 mg/kg/injection, schedule: Q01DX011 (ip), vehicle: water) 103 % of control; (dose: 0.8 mg/kg/injection, schedule: Q01DX011 (ip), vehicle: water) 117 % of control; (dose: 1.6 mg/kg/injection, schedule: Q01DX011 (ip), vehicle: water) 94 % of control; (dose: 3.2 mg/kg/injection, schedule: Q01DX011 (ip), vehicle: water) 97 % of control.
Turning to `Cn1c(=N)nc(SCc2ccccc2Cl)c2[nH]cnc21`, the T/C runs as follows: under setting [3], 88 % of control; (dose: 60.0 mg/kg/injection, schedule: Q01DX011 (ip), vehicle: carboxymethylcellulose (CMC)) 118 % of control; (dose: 120.0 mg/kg/injection, schedule: Q01DX011 (ip), vehicle: carboxymethylcellulose (CMC)) 88 % of control; (dose: 240.0 mg/kg/injection, schedule: Q01DX011 (ip), vehicle: carboxymethylcellulose (CMC)) 16 % of control.
In the case of `Cn1c(=O)c2[nH]c(/N=N/N3CCN(CCO)CC3)nc2n(C)c1=O`, the T/C by setting is: (dose: 75.0 mg/kg/injection, schedule: Q01DX011 (ip), vehicle: other) 119 % of control; (dose: 225.0 mg/kg/injection, schedule: Q01DX011 (ip), vehicle: other) 92 % of control.
As to `Cn1cnc2c(Cl)nc(C(F)(F)F)nc21`, the T/C under setting [3] is 80 % of control.
For the compound `CCC1CN1P(=S)(N1CC1CC)N1CC1CC` (configuration not stated), the T/C was 104 % of control (dose: 28.0 mg/kg/injection, schedule: Q01DX011 (ip), vehicle: saline); 28 % of control (dose: 56.0 mg/kg/injection, schedule: Q01DX011 (ip), vehicle: saline); 8 % of control (dose: 113.0 mg/kg/injection, schedule: Q01DX011 (ip), vehicle: saline).
Consider `CCC(=O)c1cc2c(cc1CC)C(C)(C)CCC2(C)C`, for which the T/C (dose: 100.0 mg/kg/injection, schedule: Q01DX011 (ip), vehicle: carboxymethylcellulose (CMC)) is 53 % of control and 63 % of control.
